The nature of series [1]: Hygroscopicity and solid-form stability of paclitaxel crystal forms. It counts as physicochemical.

Take `CC(=O)O[C@H]1C(=O)[C@@]2(C)[C@H]([C@H](OC(=O)c3ccccc3)[C@]3(O)C[C@H](OC(=O)[C@H](O)[C@@H](NC(=O)c4ccccc4)c4ccccc4)C(C)=C1C3(C)C)[C@]1(OC(C)=O)CO[C@@H]1C[C@@H]2O` [Form A, Paclitaxel]: the water solubility entry is recorded as “highly water insoluble”. Moreover, in series [1] (Form A: relative humidity greater than about 90% or aqueous suspensions, Form D: relatively high humidity), the “conversion of crystal form” value is given as “converts (as a function of time, temperature, agitation, etc.) to a thermodynamically more stable form”. Besides, the hygroscopicity result in series [1] (normal laboratory conditions (RH approximately 50-60%; 20-30° C.)) is recorded as “substantially non-hygroscopic”.

In the case of `CC(=O)OC1C(=O)C2(C)C(O)CC3OCC3(OC(C)=O)C2C(OC(=O)c2ccccc2)C2(O)CC(OC(=O)C(O)C(NC(=O)c3ccccc3)c3ccccc3)C(C)=C1C2(C)C.O.O.O` (stereo not shown) [Form B], the water solubility entry was “even less water soluble than Form A”.

The values are drawn from patent publication US6858644B2, “Paclitaxel solvates” (Bristol-Myers Squibb Co., priority 2001, dated 2005).
